Test results published in PubChem BioAssay AID248 (DTP/NCI, 2004).
Values joined by “and” are separate entries in the source; they are usually repeats but may differ in a detail not shown here. Identical values can stand only once. Toxic doses and inconclusive results are not listed. No stated cut-off is given here; in the data, active means T/C of 150% or more; inactive means T/C below 125%. Peptide text beside a SMILES is read from it.

Test system: L1210 leukemia ip in BDF1 mice, survival T/C
Assay: NCI In Vivo Anticancer Drug Screen. Data for tumor model L1210 Leukemia (intraperitoneal) in B6D2F1 (BDF1) mice
Conditions: endpoint: mean survival time, higher = longer survival
Summary of the method: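 Tumor cells were implanted, animals were treated, and survival was followed. The result divides the treated measurement by the vehicle-control measurement.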

[1] = dose: 100.0 mg/kg/injection, schedule: Q01DX001 (ip), vehicle: saline with Tween-80
[2] = dose: 100.0 mg/kg/injection, schedule: Q04DX002 (ip), vehicle: saline with Tween-80
[3] = dose: 200.0 mg/kg/injection, schedule: Q01DX001 (ip), vehicle: saline with Tween-80
[4] = dose: 200.0 mg/kg/injection, schedule: Q04DX002 (ip), vehicle: saline with Tween-80
[5] = dose: 400.0 mg/kg/injection, schedule: Q01DX001 (ip), vehicle: saline with Tween-80
[6] = dose: 400.0 mg/kg/injection, schedule: Q04DX002 (ip), vehicle: saline with Tween-80
[7] = dose: 100.0 mg/kg/injection, schedule: Q04DX003 (ip), vehicle: Klucel (hydroxypropylcellulose) (HPC)
[8] = dose: 200.0 mg/kg/injection, schedule: Q04DX003 (ip), vehicle: Klucel (hydroxypropylcellulose) (HPC)
[9] = dose: 400.0 mg/kg/injection, schedule: Q04DX003 (ip), vehicle: Klucel (hydroxypropylcellulose) (HPC)
[10] = dose: 100.0 mg/kg/injection, schedule: Q01DX001 (ip), vehicle: saline
[11] = dose: 200.0 mg/kg/injection, schedule: Q01DX001 (ip), vehicle: saline
[12] = dose: 400.0 mg/kg/injection, schedule: Q01DX001 (ip), vehicle: saline
[13] = dose: 100.0 mg/kg/injection, schedule: Q01DX001 (ip), vehicle: carboxymethylcellulose (CMC)
[14] = dose: 200.0 mg/kg/injection, schedule: Q01DX001 (ip), vehicle: carboxymethylcellulose (CMC)
[15] = dose: 25.0 mg/kg/injection, schedule: Q01DX009 (ip), vehicle: Klucel (hydroxypropylcellulose) (HPC)
[16] = dose: 50.0 mg/kg/injection, schedule: Q01DX009 (ip), vehicle: Klucel (hydroxypropylcellulose) (HPC)
[17] = dose: 100.0 mg/kg/injection, schedule: Q04DX003 (ip), vehicle: saline with Tween-80
[18] = dose: 200.0 mg/kg/injection, schedule: Q04DX003 (ip), vehicle: saline with Tween-80
[19] = dose: 400.0 mg/kg/injection, schedule: Q04DX003 (ip), vehicle: saline with Tween-80

Measured: T/C

CSc1ccc(NC(=O)c2ccc(Cl)cc2Cl)cc1
inactive: [1] 89 % of control | dose: 100.0 mg/kg/injection, schedule: Q01DX009 (ip), vehicle: saline + alcohol 95 % of control and 108 % of control | [2] 96 % of control and 108 % of control | [3] 89 % of control | dose: 200.0 mg/kg/injection, schedule: Q01DX009 (ip), vehicle: saline + alcohol 97 % of control and 106 % of control | [4] 93 % of control and 97 % of control | [5] 90 % of control | [6] 93 % of control and 97 % of control

CO/C(=N\S(=O)(=O)c1ccccc1)C1CC=CCC1/C(=N\S(=O)(=O)c1ccccc1)OC (stereo unspecified)
inactive: [7] 100 % of control | [8] 94 % of control | [9] 100 % of control

CCCCCC(=O)c1c(O)cc2c(c1O)C(=O)c1c(O)cc(O)cc1C2=O
inactive: [10] 86 % of control | dose: 300.0 mg/kg/injection, schedule: Q01DX001 (ip), vehicle: saline 91 % of control

CCCCOP(=S)(Nc1ccccc1)OCCCC
inactive: [7] 107 % of control | [8] 107 % of control | [9] 122 % of control

CC[N+]1(CC)CCC(OC(=O)C(O)(c2ccccc2)c2ccccc2)C1 (stereo unspecified)
inactive: dose: 5.0 mg/kg/injection, schedule: Q01DX001 (ip), vehicle: saline 97 % of control | dose: 10.0 mg/kg/injection, schedule: Q01DX001 (ip), vehicle: saline 92 % of control | dose: 20.0 mg/kg/injection, schedule: Q01DX001 (ip), vehicle: saline 97 % of control | dose: 40.0 mg/kg/injection, schedule: Q01DX001 (ip), vehicle: saline 97 % of control | dose: 80.0 mg/kg/injection, schedule: Q01DX001 (ip), vehicle: saline 103 % of control

C=CCC(CCCCCCCCCCCCC)C(=O)O (stereo unspecified)
inactive: [1] 96 % of control | [3] 105 % of control | [5] 101 % of control

CC(C)CCCC(C)CCC1=C(O)c2ccccc2C(=O)C1=O (stereo unspecified)
inactive: dose: 100.0 mg/kg/injection, schedule: Q01DX001 (ip), vehicle: Klucel (hydroxypropylcellulose) (HPC) 102 % of control | [7] 101 % of control | dose: 200.0 mg/kg/injection, schedule: Q01DX001 (ip), vehicle: Klucel (hydroxypropylcellulose) (HPC) 98 % of control | [8] 97 % of control | dose: 400.0 mg/kg/injection, schedule: Q01DX001 (ip), vehicle: Klucel (hydroxypropylcellulose) (HPC) 100 % of control | [9] 97 % of control

Cc1ccc(C(c2ccc(C)c(C)c2)C(c2ccc(C)c(C)c2)C(O)C(O)C(O)CO)cc1C (stereo unspecified)
inactive: dose: 50.0 mg/kg/injection, schedule: Q01DX001 (ip), vehicle: saline 93 % of control | [10] 106 % of control | [11] 98 % of control | [12] 98 % of control

CN(C)C(=NN=C(N(C)C)N(C)C)N(C)C
inactive: dose: 12.5 mg/kg/injection, schedule: Q04DX003 (sc), vehicle: saline 102 % of control | dose: 25.0 mg/kg/injection, schedule: Q04DX003 (sc), vehicle: saline 107 % of control | dose: 50.0 mg/kg/injection, schedule: Q04DX003 (sc), vehicle: saline 100 % of control | dose: 100.0 mg/kg/injection, schedule: Q04DX003 (sc), vehicle: saline 98 % of control

CC(NC(=O)C(CCC(=O)O)NC(=O)C(N)Cc1c[nH]c2ccccc12)C(=O)NCC(=O)NC(Cc1c[nH]c2ccccc12)C(=O)NC(CCC(=O)O)C(=O)NC(C)C(=O)NCC(=O)NCC(=O)O (stereo unspecified) (H-WEAGWEAGG-OH; configuration not given here)
inactive: dose: 50.0 mg/kg/injection, schedule: Q01DX001 (ip), vehicle: carboxymethylcellulose (CMC) 96 % of control | [13] 98 % of control | [14] 96 % of control

COc1cccc(CC2=C3CCCN(C(=O)c4ccccc4)C3CCC2=O)c1 (stereo unspecified)
inactive: dose: 100.0 mg/kg/injection, schedule: Q01DX009 (ip), vehicle: saline sonified 98 % of control | dose: 200.0 mg/kg/injection, schedule: Q01DX009 (ip), vehicle: saline sonified 96 % of control | dose: 400.0 mg/kg/injection, schedule: Q01DX009 (ip), vehicle: saline sonified 96 % of control

CO[C@H]1/C=C/O[C@@]2(C)Oc3c(C)c(O)c4c(O)c(c(/C=N/N5CCN(C)CC5)c(O)c4c3C2=O)NC(=O)/C(C)=C\C=C\[C@H](C)[C@H](O)[C@@H](C)[C@@H](O)[C@@H](C)[C@H](OC(C)=O)[C@@H]1C
inactive: [15] 96 % of control | dose: 50.0 mg/kg/injection, schedule: Q01DX001 (ip), vehicle: water 97 % of control | [16] 94 % of control | [10] 97 % of control | dose: 100.0 mg/kg/injection, schedule: Q01DX001 (ip), vehicle: water 103 % of control | dose: 100.0 mg/kg/injection, schedule: Q01DX009 (ip), vehicle: Klucel (hydroxypropylcellulose) (HPC) 94 % of control | [11] 100 % of control | dose: 200.0 mg/kg/injection, schedule: Q01DX001 (ip), vehicle: water 100 % of control | [12] 97 % of control | dose: 400.0 mg/kg/injection, schedule: Q01DX001 (ip), vehicle: water 108 % of control | dose: 1200.0 mg/kg/injection, schedule: Q01DX001 (ip), vehicle: acetone 102 % of control

CC(=O)OCCC/C(=C\c1ccc(F)cc1)[N+](=O)[O-]
inactive: dose: 100.0 mg/kg/injection, schedule: Q01DX001 (ip), vehicle: other 111 % of control

c1ccc2c(c1)NC(C1Nc3ccccc3S1)S2 (stereo unspecified)
inactive: dose: 100.0 mg/kg/injection, schedule: Q01DX001 (ip), vehicle: acetone 90 % of control | [7] 93 % of control | dose: 200.0 mg/kg/injection, schedule: Q01DX001 (ip), vehicle: acetone 88 % of control | [8] 93 % of control | dose: 400.0 mg/kg/injection, schedule: Q01DX001 (ip), vehicle: acetone 88 % of control | [9] 90 % of control

COc1ccc(-n2cnc3c(=O)[nH]c(N)nc32)cc1NC(=O)Nc1cccc(S(=O)(=O)F)c1
inactive: dose: 50.0 mg/kg/injection, schedule: Q01DX001 (ip), vehicle: saline with Tween-80 95 % of control | [1] 92 % of control | [3] 100 % of control

Nc1c(Br)cc(Br)c2ccccc12
inactive: dose: 100.0 mg/kg/injection, schedule: Q01DX009 (ip), vehicle: acetone 93 % of control | [17] 97 % of control | dose: 200.0 mg/kg/injection, schedule: Q01DX009 (ip), vehicle: acetone 91 % of control | [18] 92 % of control | dose: 400.0 mg/kg/injection, schedule: Q01DX009 (ip), vehicle: acetone 93 % of control | [19] 97 % of control

O=C(NNc1ccccc1)OCCCl
inactive: dose: 12.5 mg/kg/injection, schedule: Q01DX009 (ip), vehicle: Klucel (hydroxypropylcellulose) (HPC) 95 % of control | [15] 101 % of control | [16] 107 % of control

COc1ccc(C(=O)CCCCl)c(OC)c1
inactive: dose: 100.0 mg/kg/injection, schedule: Q01DX009 (ip), vehicle: saline with Tween-80 95 % of control | [17] 89 % of control | dose: 200.0 mg/kg/injection, schedule: Q01DX009 (ip), vehicle: saline with Tween-80 93 % of control | [18] 96 % of control | dose: 400.0 mg/kg/injection, schedule: Q01DX009 (ip), vehicle: saline with Tween-80 93 % of control | [19] 91 % of control

COc1c(CO)c2c(c(OC)c1OC)-c1ccc(OC)c(=O)cc1[C@@H](NC(C)=O)CC2
inactive: dose: 33.0 mg/kg/injection, schedule: Q01DX015 (ip), vehicle: saline 122 % of control

O=C(CCN(Cc1ccccc1)Cc1ccccc1)c1csc2ccccc12
inactive: [13] 96 % of control | [14] 89 % of control | dose: 400.0 mg/kg/injection, schedule: Q01DX001 (ip), vehicle: carboxymethylcellulose (CMC) 94 % of control

O=Nc1ccc(SCC(=O)NNC(=O)CSc2ccc(N=O)cc2[N+](=O)[O-])cc1
inactive: [17] 93 % of control

CCOC(=N)C(O)c1ccccc1 (stereo unspecified)
inactive: [2] 111 % of control | [4] 100 % of control | [6] 100 % of control

Brc1cscc1C1=CCCc2ccccc21
inactive: [7] 106 % of control | [8] 98 % of control | [9] 101 % of control
